Data published in patent US20070015817A1, “4-((4-(2-pyrrolidinylethoxy)phenyl)methyl)-3-(4-(trifluoromethyl)phenyl)-7-hydroxychromen-2one, pharmaceutically acceptable salts thereof and methods of use therewith” (priority 2002, published 2007).

Key:
Assay type in all cases: cell-based
[1] = system: IL-6 release from human U-2 OS osteosarcoma cells stably transfected with human ER-α; experiment: Inhibition of IL-6 release; conditions: U2OS; U-2 OS cells transfected with human ER-α, stimulated with 2.5 ng/ml TNFα and 1 ng/ml IL-1, IL-6 by ELISA after 24 h, relative to vehicle
Experimental: Illustrative benzopyranone compounds were tested for their ability to inhibit IL-6 release from human U-2 OS osteosarcoma cells stably transfected with human ER-α. (Stein, B.; Yang, M. X. Mol. Cell. Biol 15: 4971-4979, 1995; Poli, V. et. al., EMBO J. 13:1189-1196, 1994). […] Benzopyranone compounds having an IC50<100 nM are particularly useful as bone resorption inhibitors in vivo. Accordingly, the compounds of this assay, illustrative benzopyranone compounds, are particularly useful for the treatment of osteoporosis, Paget's disease and metastatic bone cancer. These compounds are also useful as anti-cancer agents as elevated IL-6 levels are responsible for certain cancers such as multiple myeloma, prostate cancer, ovarian cancer, renal carcinoma and cervical carcinoma.
Human U-2 OS osteosarcoma cells (ATCC) were stably transfected with expression vectors for human full-length ER-α using standard molecular biology techniques. Stable subclones were generated that expressed high levels of ER-α mRNA. The expression of ER-α was confirmed using RNase protection analysis.
Cells were plated into 96-well plates at a density of 80,000 cells per well in phenol red-free media with charcoal-stripped fetal calf serum. Twenty four hours later, cells were either treated with vehicle (0.2% DMSO) or test compound (0.01 B 100 nm in 0.2% DMSO). Thirty minutes later cells were stimulated with 2.5 ng/ml TNFα and 1 ng/ml IL-1. Twenty-four hours later the media supernatant was analyzed for cytokine production (IL-6) using commercially available ELISA kits following the manufacturer=s instructions. Cytokine production in the presence of vehicle (0.2% DMSO) was set to 100%. The results are expressed as IC50 (nM) values (Table 2) which is the concentration of the benzopyranone compound necessary to inhibit the production of IL-6 50% relative to the amount of IL-6 produced in the presence of vehicle.

[2] = system: MCF-7 breast cancer cells; experiment: Inhibition of MCF-7 breast cancer cell proliferation; conditions: Homo sapiens, MCF7; 0.1 nM 17β-estradiol-dependent growth, 72 h, 3H-thymidine incorporation
Experimental: MCF-7 cells represent an excellent in vitro system to study the effects of compounds on estrogen-dependent breast cancer growth. (May, F.E.B.; Westley, B. R. J. Biol. Chem. 262:15894-15899, 1987). Benzopyranone compounds having an IC50<100 nM are particularly useful as anti-breast cancer agents in vivo.
MCF-7 breast carcinoma cells were plated in 24-well dishes at a density of 5×10^3 cells/well in phenol-red free DMEM:F-12 (1:1) medium containing 1% antibiotics, 0.05% mercaptoethanol, 0.01% ethanolamine, 0.42 ng/mL sodium selenite and 5% charcoal-stripped FCS.
Illustrative benzopyranone compounds (0.1-1000 nM in 0.2% DMSO) and 0.1 nM 17β-estradiol were added to the cultured MCF-7 breast cancer cells for 72 h. Subsequently, 3H-labeled thymidine was added and its incorporation into cells was measured following 4h incubation. The results are expressed as IC50 (nM) values (Table 2) which is the concentration of the benzopyranone compound necessary to inhibit the growth of MCF-7 breast cancer cells by 50% relative to controls.

[3] = system: BG-1 ovarian carcinoma cells; experiment: Inhibition of BG-1 ovarian carcinoma cell proliferation; conditions: 0.1 nM 17β-estradiol-dependent growth, 72 h, 3H-thymidine incorporation
Experimental: BG-1 cells serve as a useful in vitro model for the evaluation of the effects of antiestrogenic compounds on ovarian tumor growth (Greenberger, L. M. et. al., Clin. Cancer Res. 7:3166-3177, 2001). Benzopyranone compounds having an IC50<100 nM are particularly useful as anti-ovarian cancer agents in vivo.
BG-1 ovarian carcinoma cells were plated in 24-well dishes at a density of 5×10^3 cells/well in phenol-red free DMEM:F-12 (1:1) medium containing 1% antibiotics, 0.05% mercaptoethanol, 0.01% ethanolamine, 0.42 ng/mL sodium selenite and 5% charcoal-stripped FCS. Illustrative benzopyranone compounds (0.1-1000 nM in 0.2% DMSO) and 0.1 nM 17β-estradiol were added to the cultured BG-1 ovarian carcinoma cells and incubated for 72 h. Subsequently, ^3H-labeled thymidine was added and its incorporation into cells was measured following 4h incubation. The results are expressed as IC50 (nM) values (Table 2) which is the concentration of the benzopyranone compound necessary to inhibit the growth of BG-1 ovarian carcinoma cells by 50% relative to controls.

| SMILES | IC50 [1] [nM] | IC50 [2] [nM] | IC50 [3] [nM] |
| --- | --- | --- | --- |
| O=c1oc2cc(O)ccc2c(Cc2ccc(OCCN3CCCC3)cc2)c1-c1ccc(C(F)(F)F)cc1C(F)(F)F | 1 | 26 | 5.5 |
| O=c1oc2cc(O)ccc2c(Cc2ccc(OCCN3CCCC3)cc2)c1-c1ccc(Cl)cc1C(F)(F)F | 0.4 | 3 | 2.3 |
| O=c1oc2cc(O)ccc2c(Cc2ccc(OCCN3CCCC3)cc2)c1-c1ccc(C(F)(F)F)cc1Cl | 0.5 | 4.5 | 4.65 |

Continued by falling IC50 [1], values first:

| IC50 [1] [nM] | IC50 [2] [nM] | IC50 [3] [nM] | SMILES |
| --- | --- | --- | --- |
| 1.5 | 13.6 | 13.6 | O=c1oc2cc(O)ccc2c(Cc2ccc(OCCN3CCCC3)cc2)c1-c1ccc(C(F)(F)F)cc1 |
| 0.4 | 26 | 5.8 | O=c1oc2cc(O)ccc2c(Cc2ccc(OCCN3CCCC3)cc2)c1-c1ccc(Cl)cc1 |
| 0.29 | 6.5 | 1.4 | O=c1oc2cc(O)ccc2c(Cc2ccc(OCCN3CCCC3)cc2)c1-c1ccc(Cl)cc1Cl |
